Reference: ChEMBL document CHEMBL1156364, “Chondropsin D, a new 37-membered-ring macrolide lactam from the marine sponge Chondropsis species” (J Nat Prod, 2001)
Converted amounts (≈) assume the structure as drawn.

Assays:
[1] = Cytotoxicity against human LOX cells after 2 days by XTT assay; type: functional, cell-based; details: 48 h
MOLT-4 = experiment: Cytotoxicity against human MOLT4 cells after 2 days by XTT assay; type: functional, cell-based; details: MOLT-4, 48 h

## COC(=O)C(C)(C)C(O)C(C)C(=O)C(C)(C)/C=C/C(=O)NC(C(O)C(C)C)C(O)C(C)/C=C(\C)C(O)C(C)CCC(O)C(C)C(=O)NC1C(C)OC(=O)C(C(O)C(=O)O)NC(=O)/C=C/C=C/CC/C=C/C=C/C[C@@H]2C[C@@H](C)C[C@@H](CC(O)C(C)C(O)/C(C)=C/C(C)C(O)/C(C)=C/CC(OC(=O)CC(O)C(=O)O)C(C)C1O)O2 (some centres not stated) [CHONDROPSIN D]
[1]
  IC50: 0.01 µg/mL (≈ 0.00629 µM)
MOLT-4
  IC50: 0.25 µg/mL (≈ 0.157 µM)
